# According to article PMC7532674, “Synthesis and preliminary studies of ^11C-labeled tetrahydro-1,7-naphthyridine-2-carboxamides for PET imaging of metabotropic glutamate receptor 2” (Theranostics, 2020):
# Like-named read-outs stand apart in the source and are kept apart here.
# Columns and labels:
# mGlu2 [1] = conditions: cited from earlier work
# [2] = cited from earlier work
# [3] = design: method as in PMID 30611634; conditions: cited from earlier work
# human mGlu2 = target: T1, human mGlu2 (Homo sapiens, UniProt Q14416); assay: Human mGlu2 GIRK thallium flux assay; format: cell-based; conditions: HEK293 cells, EC80 glutamate, triplicate assays (14g duplicate)
# T1 construct: expressed in transfected cells
# Experimental: (§1) Cell Line Generation and Thallium Flux Assays. The general procedure for the preparation of human mGlu2 and mGlu3 was described previously, [56] with minor modifications in this work. The cloning sites were NheI/NotI for both receptors. HEK GIRK cells, generously provided by Lily Jan (University of California San Francisco, San Francisco, CA), were transfected with 24 μg of DNA using Fugene6 (Promega), stable transfectants were selected with 1 μg/mL puromycin dihydrochloride (Sigma-Aldrich, St. Louis, MO), and polyclonal human mGlu2 GIRK and mGlu3 GIRK cell lines were established. Cells were maintained following selection in 45% DMEM, 45% Ham's F12, 10% FBS, 100 units/mL penicillin/streptomycin, 20 mM HEPES, pH 7.3, 1 mM sodium pyruvate, 2 mM glutamine, 700 μg/mL G418 (Mediatech, Inc., Herndon, VA), and […] puromycin (growth media) at 37 °C in the presence of 5% CO2. All cell culture reagents were purchased from Invitrogen Corp. (Carlsbad, CA) unless otherwise noted.
# (§2) Human mGlu2 and mGlu3 Thallium Flux in Vitro Assays. Potencies of these NAMs at both mGlu2 and mGlu3 were investigated by thallium flux through GIRK channels, which was disclosed in detail as well as described in our previous work. In particular, cells were plated into 384-well, black-walled, clear-bottomed poly(D-lysine_-coated plates at a density of 15 000 cells per well in 20 μL of DMEM containing 10% dialyzed FBS, 20 mM HEPES, and 100 units/mL penicillin/streptomycin (assay media). Plated cells were incubated overnight at 37 °C in the presence of 5% CO2. The next day, the medium was exchanged from the cells to assay buffer [Hanks' balanced salt solution (Invitrogen) containing 20 mM HEPES, pH 7.3] using an ELX405 microplate washer (BioTek), leaving 20 μL per well, followed by the addition of 20 μL per well of FluoZin2-AM (330 nM final concentration) indicator dye (Invitrogen; prepared as a stock in DMSO and mixed in a 1:1 ratio with Pluronic acid F-127) in assay buffer. Cells were incubated for 1 h at room temperature, and the dye was exchanged to assay buffer using an ELX405, leaving 20 μL per well. For concentration-response curve experiments, compounds were serially diluted 1:3 into 10 point concentration-response curves and were transferred to daughter plates using an Echo acoustic plate reformatter (Labcyte, Sunnyvale, CA). Test compounds were diluted to 2 times their final desired concentration in assay buffer (0.3% DMSO final concentration). Agonists were diluted in thallium buffer [125 mM sodium bicarbonate (added fresh the morning of the experiment), 1 mM magnesium sulfate, 1.8 mM calcium sulfate, 5 mM glucose, 12 mM thallium sulfate, and 10 mM HEPES, pH 7.3] at 5 times the final concentration to be assayed. Cell plates and compound plates were loaded onto a kinetic imaging plate reader (FDSS 6000 or 7000; Hamamatsu Corporation, Bridgewater, NJ). Appropriate baseline readings were taken (10 images at 1 Hz; excitation, 470 ± 20 nm; emission, 540 ± 30 nm), and test compounds were added in a 20 μL volume and incubated for approximately 1 h at room temperature before the addition of 10 μL of thallium buffer with or without an EC80 concentration of the agonist glutamate for affinity evaluation experiments or with a full concentration-response of glutamate for Schild analysis experiments. After the addition of agonist, data were collected for approximately an additional 2.5 min. Data were analyzed using Excel (Microsoft Corp, Redmond, WA). The slope of the fluorescence increase beginning 5 s after thallium/agonist addition and ending 15 s after thallium/agonist addition was calculated, corrected to vehicle and maximal agonist control slope values, and plotted using either XLfit (ID Business Solutions Ltd.) or Prism software (GraphPad Software, San Diego, CA) to generate concentration-response curves. Potencies were calculated from fits using a four-point parameter logistic equation.
# human mGlu3 = target: T2, human mGlu3 (Homo sapiens, UniProt Q14832); assay: Human mGlu3 GIRK thallium flux assay; format: cell-based; conditions: HEK293 cells, triplicate assays (14g duplicate)
# T2 construct: expressed in transfected cells
# Experimental: as §1, §2
# major CNS targets = assay: CNS panel binding selectivity assays (NIMH PDSP)
# hERG = target: T3, hERG (Homo sapiens, UniProt Q12809); assay: hERG safety assay; format: binding
# T3 construct: NIMH PDSP
# [4] = tested on: mGlu1, mGlu4, mGlu5, mGlu6 and mGlu8; assay: Functional (agonist and antagonist) assays towards mGlu receptors; format: cell-based; conditions: mGlu1, 4, 5, 6, 8
# [5] = Whole body ex vivo biodistribution in mice
# Experimental: Each mouse was treated with a bolus injection of [^11C]14b (50 μCi / 150 μL) via the tail vein. Three mice were sacrificed by cervical dislocation at each time point (1, 5, 15, 30 and 60 min) after injection. Major organs, including heart, lungs, liver, pancreas, spleen, kidneys, stomach (including contents), small intestine (including contents), large intestine (including contents), testes, muscle, whole brain and blood samples were quickly removed and weighed. The radioactivity remained in these organs was measured by a 2480 Wizard autogamma counter (PerkinElmer, USA). The results are expressed as the percentage of injected dose per gram of wet tissue (%ID/g) or standardized uptake value (SUV). All radioactivity measurements were decay-corrected to the time point of PET tracer injection based on half-life of ^11C.
# [6] = Radiometabolite analysis in plasma and brain; format: in vivo, Sprague-Dawley rats; conditions: SD rats
# Experimental: Sprague-Dawley rats were sacrificed by decapitation under anesthesia at 5 and 20 min (n = 2 each time point) after the intravenous injection of [^11C]14b. Blood and whole brain samples were quickly harvested. Plasma was separated from the blood samples via 1) centrifuging at 15,000 g for 2 min at 4 °C, 2) mixing 0.5 mL of acetonitrile with 0.5 mL of supernatant, and then 3) vortexing for 15 s and centrifuging again at 15,000 g for 2 min for deproteinization. In terms of brain metabolite analysis, the removed rat brain was quickly placed on the ice, homogenized in an ice-cooled CH3CN/H2O (v/v, 1/1, 1 mL) solution, and then centrifuged at 15,000 g for 2 min at 4 °C. The supernatant was collected, whose radioactivity was >90% based on the total radioactivity in the brain homogenate. An aliquot of the supernatant (100 μL) obtained from the plasma or brain homogenate was injected into the radio-HPLC system and analyzed using a Capcell Pak UG80 C18 column (4.6 mm ID × 250 mm) in a mobile phase of CH3CN/H2O + 0.1% Et3N (v/v, 45/55) at a flow rate of 1.0 mL/min. The percentage of [^11C]14b to total radioactivity (corrected for decay) on the HPLC charts was calculated as ([peak area for [^11C]14b]/[total peak area]) × 100.
# mGlu2 [7] = target: T4, mGlu2 (Rattus norvegicus, UniProt P31421); assay: Dynamic PET imaging in rat brain; format: in vivo, SD rats; design: from tissue; host or cells: brain of living SD rats
# Experimental: As we previously reported, PET scans were carried out by an Inveon PET scanner (Siemens Medical Solutions, Knoxville, TN, USA). During the scan, SD rats were anesthetized by oxygen mixed with 1-2% (v/v) isoflurane and kept body temperature at […] by a commercially available circulation system (T/Pump TP401, Gaymar Industries, Orchard Park, NY). A 24-gauge catheter was inserted into the tail vein to facilitate a bolus injection. The radiotracer [^11C]14a or [^11C]14b (ca. 1 mCi / 150-200 μL) was injected into the rat via the preinstalled catheter, and the dynamic acquisition of PET signals in rat brain was started at the same time and lasted for 60 min in 3D list mode. For pretreatment studies, 14a (1 mg/kg for [^11C]14a for self-blocking study in Figure S2; 3 mg/kg for [^11C]14b for blocking study in Figure S12C) or 14b (1 mg/kg for [^11C]14b for self-blocking study in Figure S12B), formulated in 300 μL of saline containing 10% ethanol and 5% Tween 80, was injected at 30 min via the tail vein catheter prior to the injection of [^11C]14a or [^11C]14b. The dynamic emission data were reconstructed by filtered back projection using Hanning's filter with a Nyquist cutoff of 0.5 cycle/pixel into 33 frames (10 s × twelve frames, 20 s × three frames, 30 s × three frames, 60 s × three frames, 150 s × three frames, and 300 s × nine frames). The TACs of [^11C]14a or [^11C]14b were analyzed from volumes of interest in the striatum, hippocampus, cortex, thalamus, pons and cerebellum normalized to a rat brain MRI template using PMOD software (version 3.4; PMOD technology, Zurich, Switzerland). The radioactivity was decay-corrected to the injection time and expressed as the standardized uptake value (SUV) which equals to (radioactivity per milliliter of tissue per injected radioactivity) × (gram of body weight). To obtain non-displaceable binding potential (BPND), simplified reference tissue model (SRTM), [54] was carried out on the basis of kinetic analysis using PMOD software. We acquired BP-parametric images using kinetic modeling without masking. Respective TACs in receptor-rich or -poor region were loaded for production of BP-map with default setting. Representative parametric images scaled with BPND were reconstructed by PMOD software using TACs in mGlu2-enriched and reference regions. Pons was selected as the reference region for mGlu2 (the lowest and consistent brain uptake and washout kinetics between baseline and blocking conditions). It should be noted that while there is a low-level expression of mGlu2 in the pons, it is not without existence. A reference region should be a region devoid of the target, but with similar tracer transport or diffusion to the other regions of interest with expression of the target. Therefore, there are some limitations when using pons as the reference region. For example, the partial volume effect in PET likely leads to spillover of activity from nearby higher uptake regions into the pons, artificially increasing the time-activity curve in the pons.
# mGlu2 [8] = target: T4, mGlu2; assay: In vitro autoradiography in rat brain sections; format: binding; design: from tissue; host or cells: Sprague-Dawley rat brain sections
# Experimental: Sagittal rat brain slices were prepared into 20 μm sections with a cryostat (HM560; Carl Zeiss, Oberkochen, Germany), mounted on air plasma spray-coated glass slides, and stored at -80 °C before used for experiments. The sections were preincubated for 15 min in a glass tank containing 200 mL of Tris·HCl buffer (50 mM, pH 7.4) consisting of 2 mM of MgCl2 and 1.2 mM of CaCl2 at room temperature. After preincubation, the sections were incubated in a fresh buffer containing [^11C]14a or [^11C]14b (250 µCi in 200 mL buffer; molar activity 2.7 Ci/µmol of [^11C]14a and 2.5 Ci/µmol of [^11C]14b, respectively) in the glass tank for 30 min at room temperature. For blocking studies, non-radioactive 14a or 14b (10 μM) and QCA (10 μM) were chosen to determine the specificity of radiotracers for binding mGlu2. Six serial brain sections were used for each conditions. After incubation, brain sections were washed with cold buffer (3 × 5 min), immersed in cold distilled water, and then dried with cold air. The sections were placed in contact with imaging plates (BAS-MS2025, FUJIFILM, Tokyo, Japan). Autoradiograms were obtained and photostimulated luminescence (PSL) values in the ROIs were measured using a Bio-Imaging Analyzer System (BAS5000, FUJIFILM).
# [9] = SRTM, pons as reference, baseline
# T4 sequence (P31421 19-872): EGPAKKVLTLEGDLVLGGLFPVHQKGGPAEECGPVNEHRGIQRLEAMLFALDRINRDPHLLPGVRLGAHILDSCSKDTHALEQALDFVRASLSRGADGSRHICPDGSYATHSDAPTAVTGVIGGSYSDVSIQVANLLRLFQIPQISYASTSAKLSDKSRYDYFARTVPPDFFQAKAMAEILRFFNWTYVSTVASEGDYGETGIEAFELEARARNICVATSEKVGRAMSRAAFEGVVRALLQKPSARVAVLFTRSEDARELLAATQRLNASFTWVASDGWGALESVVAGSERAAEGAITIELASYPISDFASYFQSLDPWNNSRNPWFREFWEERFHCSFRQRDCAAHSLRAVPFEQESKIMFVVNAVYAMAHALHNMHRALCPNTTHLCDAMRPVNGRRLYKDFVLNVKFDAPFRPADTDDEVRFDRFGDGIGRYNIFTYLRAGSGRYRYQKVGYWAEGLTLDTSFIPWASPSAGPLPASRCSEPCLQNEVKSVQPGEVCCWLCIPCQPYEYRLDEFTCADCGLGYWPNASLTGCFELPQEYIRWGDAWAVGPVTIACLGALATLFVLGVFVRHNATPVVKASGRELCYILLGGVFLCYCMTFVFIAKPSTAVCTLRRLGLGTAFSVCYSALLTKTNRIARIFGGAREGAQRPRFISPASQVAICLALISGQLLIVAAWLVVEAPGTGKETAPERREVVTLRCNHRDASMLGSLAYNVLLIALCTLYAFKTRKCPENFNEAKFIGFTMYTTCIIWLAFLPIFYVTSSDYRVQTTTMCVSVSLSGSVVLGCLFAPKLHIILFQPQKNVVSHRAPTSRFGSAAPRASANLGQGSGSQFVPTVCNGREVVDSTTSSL
# T1 sequence (Q14416 19-872): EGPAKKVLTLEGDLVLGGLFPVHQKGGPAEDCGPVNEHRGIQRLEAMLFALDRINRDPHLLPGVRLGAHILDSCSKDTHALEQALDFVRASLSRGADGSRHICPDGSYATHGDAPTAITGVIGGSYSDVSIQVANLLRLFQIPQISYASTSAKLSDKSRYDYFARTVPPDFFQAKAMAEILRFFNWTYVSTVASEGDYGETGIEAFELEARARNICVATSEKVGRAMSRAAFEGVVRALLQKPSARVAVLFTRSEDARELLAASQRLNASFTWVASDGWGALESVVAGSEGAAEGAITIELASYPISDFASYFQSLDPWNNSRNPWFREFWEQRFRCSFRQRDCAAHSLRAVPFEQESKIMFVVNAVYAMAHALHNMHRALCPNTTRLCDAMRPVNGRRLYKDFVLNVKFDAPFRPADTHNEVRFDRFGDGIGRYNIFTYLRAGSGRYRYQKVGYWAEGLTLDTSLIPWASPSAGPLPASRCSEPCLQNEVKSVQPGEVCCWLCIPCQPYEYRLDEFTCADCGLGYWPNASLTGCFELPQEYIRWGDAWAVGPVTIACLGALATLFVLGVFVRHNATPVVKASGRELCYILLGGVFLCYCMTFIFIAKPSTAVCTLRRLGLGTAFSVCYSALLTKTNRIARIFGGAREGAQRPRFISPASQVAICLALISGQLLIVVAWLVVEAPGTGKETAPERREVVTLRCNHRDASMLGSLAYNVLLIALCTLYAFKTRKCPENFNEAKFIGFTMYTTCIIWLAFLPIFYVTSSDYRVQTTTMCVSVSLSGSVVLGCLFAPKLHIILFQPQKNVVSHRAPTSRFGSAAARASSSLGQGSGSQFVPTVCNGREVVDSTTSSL
# T2 sequence (Q14832 23-879): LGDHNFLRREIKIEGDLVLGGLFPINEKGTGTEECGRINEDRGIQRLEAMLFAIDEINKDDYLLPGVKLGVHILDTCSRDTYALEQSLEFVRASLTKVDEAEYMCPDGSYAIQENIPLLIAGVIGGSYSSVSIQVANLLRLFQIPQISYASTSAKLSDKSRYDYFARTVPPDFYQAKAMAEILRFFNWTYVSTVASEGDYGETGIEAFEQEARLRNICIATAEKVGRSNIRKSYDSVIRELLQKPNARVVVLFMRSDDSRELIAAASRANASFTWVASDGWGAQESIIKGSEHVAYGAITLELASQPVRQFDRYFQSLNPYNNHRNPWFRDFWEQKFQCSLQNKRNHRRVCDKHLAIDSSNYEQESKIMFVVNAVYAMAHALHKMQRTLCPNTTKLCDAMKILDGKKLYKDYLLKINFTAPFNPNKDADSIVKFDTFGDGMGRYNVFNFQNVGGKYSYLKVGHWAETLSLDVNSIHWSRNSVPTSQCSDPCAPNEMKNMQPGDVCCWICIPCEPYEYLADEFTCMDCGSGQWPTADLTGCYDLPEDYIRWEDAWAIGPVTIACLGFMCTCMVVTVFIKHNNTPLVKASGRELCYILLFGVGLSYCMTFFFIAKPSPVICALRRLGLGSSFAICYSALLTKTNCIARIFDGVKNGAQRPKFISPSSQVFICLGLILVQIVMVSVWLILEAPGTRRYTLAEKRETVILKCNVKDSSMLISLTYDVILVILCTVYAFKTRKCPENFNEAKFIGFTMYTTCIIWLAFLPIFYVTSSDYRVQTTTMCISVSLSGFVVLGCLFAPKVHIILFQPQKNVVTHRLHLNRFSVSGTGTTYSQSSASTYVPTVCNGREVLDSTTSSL
# T3 sequence (Q12809 whole entry): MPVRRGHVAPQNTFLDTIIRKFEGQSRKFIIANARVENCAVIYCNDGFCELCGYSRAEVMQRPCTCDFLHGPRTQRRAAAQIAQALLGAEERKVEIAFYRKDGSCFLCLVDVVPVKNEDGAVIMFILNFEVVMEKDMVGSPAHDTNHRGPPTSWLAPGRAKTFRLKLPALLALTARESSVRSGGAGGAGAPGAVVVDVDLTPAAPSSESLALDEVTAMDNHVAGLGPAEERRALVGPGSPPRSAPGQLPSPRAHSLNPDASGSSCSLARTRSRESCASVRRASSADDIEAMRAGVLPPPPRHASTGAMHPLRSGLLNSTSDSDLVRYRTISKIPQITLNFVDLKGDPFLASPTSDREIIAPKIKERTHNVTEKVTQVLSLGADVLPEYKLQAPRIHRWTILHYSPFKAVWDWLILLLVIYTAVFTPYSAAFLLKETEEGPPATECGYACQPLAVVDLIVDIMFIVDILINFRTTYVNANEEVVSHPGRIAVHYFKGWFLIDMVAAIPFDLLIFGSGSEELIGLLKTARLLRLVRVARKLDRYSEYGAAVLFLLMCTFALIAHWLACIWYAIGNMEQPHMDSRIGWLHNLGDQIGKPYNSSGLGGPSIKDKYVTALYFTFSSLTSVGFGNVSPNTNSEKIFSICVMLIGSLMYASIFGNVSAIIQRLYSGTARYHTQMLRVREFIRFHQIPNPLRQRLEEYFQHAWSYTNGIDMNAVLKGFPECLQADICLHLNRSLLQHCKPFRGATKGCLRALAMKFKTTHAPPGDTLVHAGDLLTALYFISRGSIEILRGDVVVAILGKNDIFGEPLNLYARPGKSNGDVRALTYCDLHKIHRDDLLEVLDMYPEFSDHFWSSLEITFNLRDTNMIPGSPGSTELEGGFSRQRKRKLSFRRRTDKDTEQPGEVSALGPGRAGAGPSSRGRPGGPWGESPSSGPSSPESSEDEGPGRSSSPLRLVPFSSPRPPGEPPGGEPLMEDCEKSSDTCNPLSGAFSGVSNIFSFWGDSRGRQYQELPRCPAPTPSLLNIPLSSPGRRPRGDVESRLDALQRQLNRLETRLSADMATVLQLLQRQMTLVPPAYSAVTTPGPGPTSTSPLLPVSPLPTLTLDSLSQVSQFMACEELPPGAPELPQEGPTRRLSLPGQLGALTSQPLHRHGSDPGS
smiles,measurement,setting,value
"Cc1cc(COc2cnc(C(N)=O)cc2-c2ccc(O[11CH3])cc2F)ccn1 [[^11C]MMP, 4-(2-fluoro-4-[^11C]methoxyphenyl)-5-((2-methylpyridin-4-yl)methoxy)picolinamide]",IC50,mGlu2 [1],26 nM
same,"Brain uptake, peak value",[2]; animal PET,~ 0.6
same,LogD,[3],3.30
"COc1cc(CN2CCc3c(-c4ccc(F)cc4F)cc(C(N)=O)nc3C2)ccn1 [14b, 4-(2,4-difluorophenyl)-7-((2-methoxypyridin-4-yl)methyl)-5,6,7,8-tetrahydro-1,7-naphthyridine-2-carboxamide]",IC50,human mGlu2,24 nM
same,IC50,human mGlu3,> 10 µM
same,Off-target binding,"major CNS targets; 10 μM compound, n = 4",No significant off-target binding (>50%)
same,Response with other major brain targets,"major CNS targets; comprehensive CNS panel, NIMH PDSP",no significant response
same,Activity in hERG safety assay,hERG,no activity
same,Interaction with related mGlu receptor family,[4],no substantial interaction
"[11CH3]Oc1ccc(-c2cc(C(N)=O)nc3cc(CN4C(=O)CCC4=O)ccc23)c(F)c1 [[^11C]QCA, 7-((2,5-Dioxopyrrolidin-1-yl)methyl)-4-(2-fluoro-4-[^11C]methoxyphenyl) quinoline-2-carboxamide]",IC50,mGlu2 [1],45 nM
same,"Brain uptake, peak value",[2],~ 0.3 SUV
"[11CH3]Oc1cc(CN2CCc3c(-c4ccc(F)cc4F)cc(C(N)=O)nc3C2)ccn1 [[^11C]14b, 4-(2,4-difluorophenyl)-7-((2-(methoxy-^11C)pyridine-4-yl)methyl)-5,6,7,8-tetrahydro-1,7-naphthyridine-2-carboxamide]",Ratio of %ID/g(1min/60min) in blood,[5],> 3.5
same,Brain uptake,[5]; 5 min post injection,ca. 3.6 %ID/g
same,"Radioactivity in heart, lungs, liver, pancreas, kidneys and small intestine",[5]; within initial 1 min,> 4 %ID/g
same,Unchanged fraction in plasma,[6]; 5 min post injection,77%
same,Unchanged fraction in brain,[6]; 20 min post injection,> 99%
same,Unchanged fraction in plasma,[6]; 20 min post injection,21%
same,Time of peak radioactivity in brain regions,"mGlu2 [7]; SD rats, i.v.",≤ 3 min
same,BPND in cerebellum,mGlu2 [7]; [9],0.12
same,BPND in striatum and cingulate cortex,mGlu2 [7]; [9],0.72
same,Reduction of BPND,"mGlu2 [7]; pretreatment with 14a, 3 mg/kg i.v. 30 min before",48-90%
same,Reduction of BPND,"mGlu2 [7]; pretreatment with 14b, 1 mg/kg i.v. 30 min before",41-88%
same,Ratio of cerebellum to pons,"mGlu2 [8]; autoradiography, baseline",1.78
same,Ratio of cerebral cortex to pons,"mGlu2 [8]; autoradiography, baseline",2.61
same,Ratio of hippocampus to pons,"mGlu2 [8]; autoradiography, baseline",2.00
same,Ratio of striatum to pons,"mGlu2 [8]; autoradiography, baseline",2.79
same,Decrease of region-to-pons ratios under blocking,"mGlu2 [8]; preincubated with unlabeled QCA, 14b or 14a at 10 µM",45-69%
